{"source": "patent US20080221074A1", "about": "“Drug Screen and Treatment Method” (priority 2006, published 2008)", "key": {"[1]": {"test_system": "osteoblasts and osteocytes", "experiment": "osteoblast and osteocyte apoptosis in vertebral bone of ovariectomized mice (TUNEL)", "type": "in vivo, Swiss Webster mice", "source_text": "The degree of apoptosis of osteoblasts and osteocytes in murine vertebral bone as a function of estrogen deficiency was examined. Swiss Webster mice (four months old) were ovariectomized. Twenty-eight days later, the animals were sacrificed, vertebrae were isolated, fixed and embedded, and then undecalcified in methacrylate."}, "[2]": {"test_system": "bone marrow-derived mast cells (BMMC)", "experiment": "mast cell stimulus-coupled degranulation (β-glucuronidase release)", "type": "cell-based, Balb/C mice", "settings": "no stimulus", "protocol": "In another protocol, a population of mast cells was cultivated from murine bone marrow as follows. Briefly, bone marrows from Balb/C mice were flushed from the femur using PBS and a 27 g needle. The cells were cultured in a mixture of ⅔ RPMI-1640 with 19% FBS and cells that secreted IL-3. The bone marrow cells were allowed to differentiate for 18-25 days in the IL-3-containing mixture before being used for experiments. Bone marrow cells cultured in this manner have a phenotype similar to mucosal mast cells and are referred to as bone marrow-derived mast cells (BMMC).\nThe homogeneity of the in vitro propagated mast cells was checked by conventional flow cytometry techniques and staining for cell-type specific markers. Between days 14 and 21 of propagation, mature mast cells were harvested and prepared for the test cultures. The objective was to assess of the effect of compounds such as dehydroepiandrosterone on mast cell stimulus-coupled degranulation. Prepared mast cells were dispensed into test culture wells at a density of 1×10^7 cells/mL. In control cultures, mast cells were induced to degranulate after cross linking of IgE receptors with IgE antigen-antibody complexes. […] There was no detectable degranulation of mast cells as measured by release of β-glucuronidase from cytosolic storage granules of the cells in the absence of the stimulus. […]"}, "[3]": {"test_system": "human MG-63 osteosarcoma cell line", "experiment": "reversal of dexamethasone effects in MG-63 osteoblasts", "type": "cell-based", "settings": "30 nM dexamethasone; compound concentration stated with each value (17α-ethynyl triol: 1 nM)"}, "[4]": {"experiment": "degree of sulfation and glucuronidation (other protocols)", "type": "in vitro ADME", "settings": "compared to diols", "source_text": "Despite that, the compound androst-5-ene-3β,7β,16α,17β-tetrol was active as described above when administered orally to mice in a diabetes treatment model. […] This activity may have arisen at least partly from the low metabolism of tetrol compounds in vivo."}, "EAE": {"test_system": "EAE", "experiment": "PLP-induced EAE, treatment from clinical onset", "type": "in vivo, female SJL mice", "settings": "0.1 mg q.d. po from clinical onset", "protocol": "The protocol for conducting the EAE animal model was described in (D. Auci et. al., Ann. NY. Acad. Sci. USA, 1051:730-42, 2005). Female SJL mice (6-8 week old, average body weight of 25 g) obtained from Charles-River were kept under standard laboratory conditions (non specific pathogen germ free) with ad libitum food and water and were allowed to adapt one week to their environment before commencing the study. […] EAA was induced with 200 μL of a 1:1 emulsion of 75 μg proteolipid protein (PLP) and 6 mg/mL Mycobacterium tuberculosis H37RA in complete Freund's adjuvant (CFA). The 200 μL injection was divided among four sites that drained into the auxiliary and inguinal lymphnodes. Pertussis toxin was used as a co-adjuvant and was administered i.p. at 200 ng/mouse on day zero and day two post immunization. Groups were treated with 0.1 mg of compound in 100 μL vehicle, or with vehicle alone, q.d. po (oral gavage) starting at clinical onset of disease and continuing through to day 30 post immunization. […] Clinical grading was carried out by an observer unaware of the treatment: 0=no illness, 1=flaccid tail, 2=moderate paraparesis, 3=severe paraparesis, 4=moribund state, 5=death."}, "[5]": {"test_system": "insulin sensitivity in db/db diabetic mice", "experiment": "hyperinsulinemic-euglycemic clamp", "type": "in vivo", "protocol": "Glucose lowering in 8 week old db/db diabetic mice. The hyperinsulinemic-euglycemic clamp protocol was conducted to measure insulin sensitivity in vivo. In this procedure, insulin was administered to raise the insulin concentration while glucose was infused to maintain euglycemia or a fixed, normal blood glucose level (about 180 mg/dL). […] The objective of this protocol was to investigate characterize the capacity of 17α-ethynylandrost-5-ene-3β,7β,17β-triol and androst-5-ene-3β,7β,16α,17β-tetrol to ameliorate systemic insulin resistance and improve whole body glucose disposal in the hyperinsulinemic-euglycemic clamp model. The degree of skeletal muscle and hepatic insulin sensitivity and tissue specific glucose uptake were also assessed. The animals were dosed daily by oral gavage for 14 days. On Day 10 of treatment catheters were implanted in the carotid artery and jugular vein. On the day of the clamp (day 14) the compound was administered at 7:30 am.\nBody weight and glucose concentration were assessed on day 0, 7 and day 14 of treatment. On day 14 a euglycemic hyperinsulinemic clamp was performed. Food was removed at 7:30 am at 10:30 a primed continuous infusion of [3-^3H]-glucose (0.05 μCi/min). A baseline blood sample was taken at 12:50 (−10 min) and at 1:00 (0 min) a euglycemic hyperinsulinemic clamp was initiated by administering 10 mU /kg/min of insulin. Glucose was infused at a variable rate to clamp the glucose concentration at ˜180 mg/dl. A bolus of [^14C]-2deoxyglucose was given at the end of the study to assess tissue specific glucose uptake. Plasma ^14C 2-deoxyglucose was assessed at 122, 125, 130, 135, 145 min. […]\nAnalysis was conducted as follows. Plasma samples were deproteinized with Ba(OH)2 (0.3 N) and ZnSO4 (0.3 N), dried and radioactivity was assessed on scintillation counter (Packard TRICARB 2900 TR, Meriden, Conn.). […] One supernatant was directly counted to determine radioactivity from both [14C] […] A second aliquot was treated with Ba(OH)2 and ZnSO4 to remove ^14C DGP and any tracer incorporated into glycogen and then counted to determine radioactivity from free [^14C]DG(2). [^14C]DGP was calculated as the difference between the two aliquots. […] Rg, an index of tissue specific glucose uptake was calculated as previously described (E.W. Kraegen et al., Am. J. Physiol., 248:E353-E362, 1985). Whole body glucose turnover was calculated as the ratio of the ^3H glucose infusion rate (dpm/kg/min) and arterial plasma glucose specific activity (dpm/mg). Endogenous glucose production was calculated as the difference between the whole body glucose turnover and the exogenous glucose infusion rate (R. N. Bergman et al., Endocr. Rev., 6:45-86, 1985)."}, "estrogen receptor-β": {"target": "estrogen receptor-β (Homo sapiens, UniProt Q92731)", "sequence (Q92731 whole entry, species assumed)": "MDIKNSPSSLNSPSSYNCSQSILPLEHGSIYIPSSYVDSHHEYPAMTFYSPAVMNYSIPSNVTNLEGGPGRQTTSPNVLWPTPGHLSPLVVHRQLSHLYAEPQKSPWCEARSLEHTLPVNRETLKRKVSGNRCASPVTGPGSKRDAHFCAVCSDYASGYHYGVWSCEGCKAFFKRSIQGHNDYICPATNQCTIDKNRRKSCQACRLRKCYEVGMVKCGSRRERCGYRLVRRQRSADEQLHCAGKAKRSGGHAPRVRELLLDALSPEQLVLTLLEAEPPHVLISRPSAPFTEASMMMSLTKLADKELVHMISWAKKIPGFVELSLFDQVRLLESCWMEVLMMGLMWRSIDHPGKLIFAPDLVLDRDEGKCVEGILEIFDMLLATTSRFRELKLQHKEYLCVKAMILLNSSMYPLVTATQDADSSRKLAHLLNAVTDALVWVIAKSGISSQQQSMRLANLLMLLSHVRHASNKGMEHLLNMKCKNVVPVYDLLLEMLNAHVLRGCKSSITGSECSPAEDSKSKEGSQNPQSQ", "experiment": "interaction with sex hormone receptor", "type": "binding"}, "estrogen receptor-α": {"target": "estrogen receptor-α (Homo sapiens, UniProt P03372)", "sequence (P03372 whole entry)": "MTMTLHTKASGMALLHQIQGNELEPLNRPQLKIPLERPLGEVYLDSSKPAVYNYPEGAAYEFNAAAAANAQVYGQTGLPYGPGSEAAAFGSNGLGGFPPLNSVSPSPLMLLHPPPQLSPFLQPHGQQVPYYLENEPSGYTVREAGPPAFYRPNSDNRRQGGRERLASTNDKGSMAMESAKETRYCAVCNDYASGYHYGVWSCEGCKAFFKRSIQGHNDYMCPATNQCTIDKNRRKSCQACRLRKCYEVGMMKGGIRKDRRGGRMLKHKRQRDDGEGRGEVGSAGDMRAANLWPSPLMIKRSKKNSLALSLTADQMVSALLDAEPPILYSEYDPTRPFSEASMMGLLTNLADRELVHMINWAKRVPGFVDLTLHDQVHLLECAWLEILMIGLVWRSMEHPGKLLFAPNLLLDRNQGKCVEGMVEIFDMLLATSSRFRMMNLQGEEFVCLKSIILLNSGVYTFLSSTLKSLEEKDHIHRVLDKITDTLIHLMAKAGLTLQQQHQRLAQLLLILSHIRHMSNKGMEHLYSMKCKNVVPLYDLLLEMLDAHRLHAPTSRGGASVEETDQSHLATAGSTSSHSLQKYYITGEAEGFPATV", "experiment": "interaction with sex hormone receptor", "type": "binding"}, "[6]": {"test_system": "LPS-induced acute lung inflammation", "experiment": "LPS-induced lung injury", "type": "in vivo, C57/BL6 mice", "settings": "40 mg/Kg orally; 48 h after LPS"}}, "data": [{"molecule": "C[C@]12CC[C@H]3[C@@H](CCC4=C[C@H](O)CC[C@@H]43)[C@@H]1CC[C@@H]2O", "note": "[4-estrene-3α,17β-diol]", "values": [{"measurement": "osteoblast and osteocyte apoptosis", "setting": "[1]", "result": "reduce apoptosis"}]}, {"molecule": "C[C@]12CC[C@H](O)CC1=CC[C@@H]1[C@@H]2CC[C@]2(C)C(=O)CC[C@@H]12", "note": "[dehydroepiandrosterone]", "values": [{"measurement": "degranulation with compound alone", "setting": "[2]", "result": "no measurable degranulation"}]}, {"molecule": "C[C@]12CC[C@H]3[C@@H]([C@@H](O)C=C4C[C@H](O)CC[C@@]43C)[C@@H]1C[C@@H](O)[C@@H]2O", "note": "[androst-5-ene-3α,7β,16α,17β-tetrol]", "values": [{"measurement": "reversal of the decrease in osteoprotegerin synthesis", "setting": "[3]", "result": "normal osteoprotegerin levels at 10 nM"}, {"measurement": "degree of sulfation and degree of glucuronidation", "setting": "[4]", "result": "low"}, {"measurement": "course of EAE compared to vehicle-treated mice", "setting": "EAE", "result": "very similar to that observed in the vehicle-treated mice"}]}, {"molecule": "C[C@]12CC[C@H]3[C@@H]([C@@H](O)C=C4C[C@@H](O)CC[C@@]43C)[C@@H]1C[C@@H](O)[C@@H]2O", "note": "[androst-5-ene-3β,7β,16α,17β-tetrol]", "values": [{"measurement": "glucose uptake in the gastrocnemius muscle", "setting": "[5]; ^14C-2-deoxyglucose, p<0.05", "result": "more effective"}, {"measurement": "glucose infusion rate compared to vehicle control", "setting": "[5]; oral gavage 14 days, insulin 10 mU/kg/min", "result": "increased the glucose infusion rate"}, {"measurement": "interaction with estrogen receptor-β", "setting": "estrogen receptor-β", "result": "do not interact"}, {"measurement": "reversal of the decrease in osteoprotegerin synthesis", "setting": "[3]", "result": "normal osteoprotegerin levels at 0.1 μM"}, {"measurement": "degree of sulfation and degree of glucuronidation", "setting": "[4]", "result": "low"}, {"measurement": "course of EAE compared to vehicle-treated mice", "setting": "EAE", "result": "significantly improved course of EAE"}, {"measurement": "interaction with estrogen receptor-α", "setting": "estrogen receptor-α", "result": "do not interact"}, {"measurement": "IL-6 level in BAL vs vehicle", "setting": "[6]", "result": "reduced levels"}, {"measurement": "MPO level vs vehicle", "setting": "[6]", "result": "reduced levels"}, {"measurement": "TNFα level in BAL vs vehicle", "setting": "[6]", "result": "reduced levels"}]}]}
